Test results from patent publication EP0110298A1, “Acridanone derivatives” (F. HOFFMANN-LA ROCHE & CO. Aktiengesellschaft, priority 1982, dated 1984).
Structures can show the parent of a compound that is named as a salt.

System: Schistosoma mansoni
Test: Schistosomicidal (vermicidal) activity in infected mice, single oral treatment, worm count reduction
Assay type: in vivo
Conditions: 456 h, Albino-Mäuse infected s.c. with cercariae of a Liberia-Stamm of Schistosoma mansoni, single peroral treatment 46 days after infection, section after 19 days, dose giving 50% reduction of worm count (Probitmethode), read-out: VD50 in mg/kg p.o.
Description: Die schistosomizide Wirkung der erfindungsgemässen Stoffe kann tierexperimentell wie folgt nachgewiesen werden: • Albino-Mäuse mit einem Gewicht von 15-18 g werden subcutan mit 60 + 5 Cercarien eines Liberia-Stammes von Schistosoma mansoni infiziert. 46 Tage nach der Infektion werden die Tiere einmal mit den zu prüfenden Substanzen peroral behandelt. Pro Substanz und Dosierung werden 5-10 Tiere eingesetzt. Als Kontrolle dienen 10 unbehandelte Tiere. Die Sektion erfolgt nach 19 Tagen, worauf Wurmpaare und einzelne Würmer in Mesenterialvenen, Pfortader und Leber herauspräpariert und gezählt werden. Die vermicide Wirkung zeigt sich in einer reduzierten Zahl lebender Parasiten im Vergleich zu der Zahl in den Kontrolltieren.
Zur Auswertung wird die prozentuale Reduktion der Parasiten bei behandelten Tieren im Vergleich zu unbehandelten Kontrolltieren berechnet. Man bestimmt die VD 50 nach der Probitmethode. Die VD50 ist diejenige vermizide Dosis, welche eine 50-proz. Reduktion der Wurmzahl bewirkt.
With `CN1CCN(CCn2c3ccccc3c(=NNc3nccs3)c3ccccc32)CC1` [10-12-(4-Methyl-1-piperazinyl)äthyl]-9-acridanon-(2-thiazolyl)hydrazon.2,5 HCl] the ED50 was 2.4 mg/kg.
Work on `NCCn1c2ccccc2c(=NNc2nccs2)c2ccccc21` [10-(2-Aminoäthyl)-9-acridanon-2-thiazolyl-hydrazon-dihydrochlorid] yielded an ED50 of 2.6 mg/kg.
With `c1ccc2c(c1)c(=NNc1nccs1)c1ccccc1n2CCN1CCCCC1` [10-[2-(1-Piperidinyl)äthyl]-9-acridanon-(2-thiazolyl)hydrazon-l,5 HCl] the ED50 was 9 mg/kg.
Work on `c1ccc2c(c1)c(=NN=C1NCCS1)c1ccccc1n2CCN1CCCC1` [10-[2-(1-Pyrrolidinyl)äthyl]-9-acridanon-(2-thiazolidinyliden)hydrazon] yielded an ED50 of 6.2 mg/kg.
`CC(=O)N1CCN(CCn2c3ccccc3c(=NN=C3NCCS3)c3ccccc32)CC1` [10-[2-(4-Acetyl-1-piperazinyl)äthyl]-9-acridanon-(2-thiazolidinyliden)-hydrazon] showed an ED50 of 3.4 mg/kg.
Work on `CC(=O)N1CCN(CCn2c3ccccc3c(=NNc3nccs3)c3ccccc32)CC1` [10-[2-(4-Acetyl-1-piperazinyl)äthyl]-9-acridanon-(2-thiazolyl)hydrazon-dihydrochlorid] yielded an ED50 of 2.6 mg/kg.
`CN1CCN(CCn2c3ccccc3c(=NN=C3NCCS3)c3ccccc32)CC1` [10-[2-(4-Methyl-1-piperazinyl)äthyl]-9-acridanon-(2-thiazolidinyliden)hydrazon] gave an ED50 of 4 mg/kg.
Molecule `CN(C)CCn1c2ccccc2c(=NN=C2NCCS2)c2ccccc21` [10-[2-(Dimethylamino)-äthyl]-9-acridanon-(2-thiazolidinyliden)hydrazon] has an ED50 of 6.4 mg/kg.
In the case of `CN(C)CCn1c2ccccc2c(=NNc2nccs2)c2ccccc21` [10-[2-(Dimethylamino)äthyl]-9-acridanon-(2-thiazolyl)hydrazon-dihydrochlorid], the ED50 is reported as 4.9 mg/kg.
For `CCN(CC)CCn1c2ccccc2c(=NNc2nccs2)c2ccccc21` [10-[2-(Diäthylamino)äthylJ-9-acridanon-(2-thiazolyl)hydrazon-dihydrochlorid], the ED50 was 3.3 mg/kg.
For `CCN(CC)CCn1c2ccccc2c(=NN=C2NCCS2)c2ccccc21` [10-[2-(Diäthylamino)äthyl]-9-acridanon-(2-thiazolidinyliden)hydrazon], the ED50 was 9.5 mg/kg.
With `CN(C)CCCn1c2ccccc2c(=NN=C2NCCS2)c2ccccc21` [10-[3-(Dimethylamino)propyl]-9-acridanon-(2-thiazolidinyliden)hydrazon] the ED50 was 4.7 mg/kg.
For `CN(C)CCCn1c2ccccc2c(=NNc2nccs2)c2ccccc21.Cl.Cl` [10-[3-(Dimethylamino)propyl]-9-acridanon-(2-thiazolyl)hydrazon-dihydrochlorid], the ED50 was 3.5 mg/kg.

System: not listed separately
Test: Acute toxicity (DL50) after single oral administration to mice
Conditions: mouse, in vivo, read-out: DL50 in mg/kg p.o.
Description: In der nachfolgenden Tabelle werden die Resultate dargestellt, welche mit einigen repräsentativen erfindungsgemässen Substanzen erhalten worden sind. Angegeben werden für jede der darin figurierenden Verbindung die VD50 in mg/kg p.o. und, für einige dieser Verbindungen, die DL50 in mg/kg bei einmaliger oraler Verabreichung an Mäusen.
`CN1CCN(CCn2c3ccccc3c(=NNc3nccs3)c3ccccc32)CC1` [10-12-(4-Methyl-1-piperazinyl)äthyl]-9-acridanon-(2-thiazolyl)hydrazon.2,5 HCl] showed an LD50 of 625 to 1250 mg/kg.
Work on `NCCn1c2ccccc2c(=NNc2nccs2)c2ccccc21` [10-(2-Aminoäthyl)-9-acridanon-2-thiazolyl-hydrazon-dihydrochlorid] yielded an LD50 of 156 to 312 mg/kg.
`c1ccc2c(c1)c(=NNc1nccs1)c1ccccc1n2CCN1CCCCC1` [10-[2-(1-Piperidinyl)äthyl]-9-acridanon-(2-thiazolyl)hydrazon-l,5 HCl] showed an LD50 of 312 to 625 mg/kg.
Work on `c1ccc2c(c1)c(=NN=C1NCCS1)c1ccccc1n2CCN1CCCC1` [10-[2-(1-Pyrrolidinyl)äthyl]-9-acridanon-(2-thiazolidinyliden)hydrazon] yielded an LD50 of 156 to 312 mg/kg.
With `CC(=O)N1CCN(CCn2c3ccccc3c(=NN=C3NCCS3)c3ccccc32)CC1` [10-[2-(4-Acetyl-1-piperazinyl)äthyl]-9-acridanon-(2-thiazolidinyliden)-hydrazon] the LD50 was 1250 to 2500 mg/kg.
Molecule `CC(=O)N1CCN(CCn2c3ccccc3c(=NNc3nccs3)c3ccccc32)CC1` [10-[2-(4-Acetyl-1-piperazinyl)äthyl]-9-acridanon-(2-thiazolyl)hydrazon-dihydrochlorid] has an LD50 of 312 to 625 mg/kg.
Work on `CN1CCN(CCn2c3ccccc3c(=NN=C3NCCS3)c3ccccc32)CC1` [10-[2-(4-Methyl-1-piperazinyl)äthyl]-9-acridanon-(2-thiazolidinyliden)hydrazon] yielded an LD50 of 156 to 312 mg/kg.
In the case of `CN(C)CCn1c2ccccc2c(=NN=C2NCCS2)c2ccccc21` [10-[2-(Dimethylamino)-äthyl]-9-acridanon-(2-thiazolidinyliden)hydrazon], the LD50 is reported as 250 to 500 mg/kg.
For `CN(C)CCn1c2ccccc2c(=NNc2nccs2)c2ccccc21` [10-[2-(Dimethylamino)äthyl]-9-acridanon-(2-thiazolyl)hydrazon-dihydrochlorid], the LD50 was 312 to 625 mg/kg.
In the case of `CCN(CC)CCn1c2ccccc2c(=NNc2nccs2)c2ccccc21` [10-[2-(Diäthylamino)äthylJ-9-acridanon-(2-thiazolyl)hydrazon-dihydrochlorid], the LD50 is reported as greater than 5000 mg/kg.
For `CCN(CC)CCn1c2ccccc2c(=NN=C2NCCS2)c2ccccc21` [10-[2-(Diäthylamino)äthyl]-9-acridanon-(2-thiazolidinyliden)hydrazon], the LD50 was 312 to 625 mg/kg.
Work on `CN(C)CCCn1c2ccccc2c(=NN=C2NCCS2)c2ccccc21` [10-[3-(Dimethylamino)propyl]-9-acridanon-(2-thiazolidinyliden)hydrazon] yielded an LD50 of 125 to 250 mg/kg.
For `CN(C)CCCn1c2ccccc2c(=NNc2nccs2)c2ccccc21.Cl.Cl` [10-[3-(Dimethylamino)propyl]-9-acridanon-(2-thiazolyl)hydrazon-dihydrochlorid], the LD50 was 312 to 625 mg/kg.
